The values below come from patent US20040138200A1, “Pharmaceutical compositions for treatment of Parkinson's disease” (priority 2002, published 2004).

Where a name gives a salt, the structure may show the parent alone.

The data set in a line: rotating disk dissolution test. The class given is physicochemical. Conditions: 300 rpm; for Rotating Disk Dissolution Rate (RDDR): crystalline salt, 20 mg pellet, about 500 ml dissolution medium at 25° C., slope normalized to initial exposed surface area. An excerpt: In a preferred aspect, the salts of the present invention are crystalline salts. A crystalline salt of the invention dissolves slower than the crystalline maleate salt of the same compound under standard conditions of temperature, pressure, and fluid flow. Preferably, the dissolution rate of a crystalline salt of the invention, when measured by a rotating disk dissolution test, is less than 50% of that of a crystalline maleate salt of the same compound. More preferably, the dissolution rate is less than 25% of that of a crystalline maleate salt of the same compound. More preferably, the dissolution rate is less than 10% of that of a crystalline maleate salt of the same compound. For example, under the standard conditions in a rotating disc dissolution test, the maleate salt crystals dissolved at a rotating disc dissolution rate (RDDR) of 0.44 mmole sec^−1 cm^−2, whereas the xinafoate salt crystals dissolved at a rate of 0.03 mmole sec^−1 cm^−2 (see FIG. 1). In preferred embodiments, the salt of the invention the salt has a dissolution rate into aqueous solution of about 0.40 mmole sec^−1 cm^−2 or less. In more preferred embodiments, the salt of the invention the salt has a dissolution rate into aqueous solution of about 0.20 mmole sec^−1 cm^−2 or less. In more preferred embodiments, the salt of the invention the salt has a dissolution rate into aqueous solution of about 0.05 mmole sec^−1 cm^−2 or less.
Dissolution rates of sumanirole from xinafoate and maleate crystalline salts were determined using a rotating disk apparatus. In this apparatus, a die containing a pellet comprising a substance of interest is attached to an arm connected to a small motor. The die is submerged in about 500 ml of a dissolution medium at 25° C., and rotated at 300 rpm. The concentration of a compound released into solution is measured in a series of time points using an in situ UV/vis absorbance dip probe linked to a digital computer. For testing the dissolution rates of sumanirole xinafoate and sumanirole maleate crystalline salts, 20 mg of the xinafoate crystalline salt and 20 mg of the maleate crystalline salt were each pressed into pellets of uniform shape at 1000 pounds (3700 psi) for 1 minute. Each pellet was then subjected to dissolution in a rotating disc dissolution apparatus. Measurements of the amount of sumanirole dissolved into the medium, recorded as milligrams of free base equivalent of sumanirole, were plotted against time (FIG. 1). The slope of each curve, normalized to the initial exposed surface area of each disk, was used to calculate a Rotating Disk Dissolution Rate (RDDR) for each salt.

As for `CN[C@@H]1Cc2cccc3[nH]c(=O)n(c23)C1` [sumanirole maleate, (R)-5,6-dihydro-5-(methylamino)-4H-imidazo[4,5,1-ij]quinolin-2(1H)-one, reference compound], the “Rotating Disk Dissolution Rate (RDDR)” value is given as 0.44 mmole sec^−1 cm^−2. Further, for the setting “listed as maleate salt”, the “Rotating Disk Dissolution Rate (RDDR)” value is listed as 0.44 mmole sec^−1 cm^−2.

In the case of `CN[C@@H]1Cc2cccc3[nH]c(=O)n(c23)C1` [sumanirole xinafoate, (R)-5,6-dihydro-5-(methylamino)-4H-imidazo[4,5,1-ij]quinolin-2(1H)-one], the “Rotating Disk Dissolution Rate (RDDR)” value is listed as 0.030 mmole sec^−1 cm^−2. Besides, under “listed as xinafoate salt”, the “Rotating Disk Dissolution Rate (RDDR)” value was 0.03 mmole sec^−1 cm^−2. For the same compound, the “dissolution rate relative to the rate of the sumanirole maleate crystalline salt” value (rotating disk dissolution, 25° C.) was “less than 10%”.
